pIC50: −log10 of the molar value. A value given as a limit tells only on which side of the number the result lay.

The pIC50 is the IC50 on a negative log10 scale, so that one unit is a factor of ten. A high value points to a low IC50.

This assay addresses T1, HsHaspin-kd (Homo sapiens, UniProt Q8TF76).
T1 construct: kinase domain, amino acids 470–798 cloned in pGEX-6P-3; made in house; host or cells: bacteria
T1 sequence (Q8TF76 470-798): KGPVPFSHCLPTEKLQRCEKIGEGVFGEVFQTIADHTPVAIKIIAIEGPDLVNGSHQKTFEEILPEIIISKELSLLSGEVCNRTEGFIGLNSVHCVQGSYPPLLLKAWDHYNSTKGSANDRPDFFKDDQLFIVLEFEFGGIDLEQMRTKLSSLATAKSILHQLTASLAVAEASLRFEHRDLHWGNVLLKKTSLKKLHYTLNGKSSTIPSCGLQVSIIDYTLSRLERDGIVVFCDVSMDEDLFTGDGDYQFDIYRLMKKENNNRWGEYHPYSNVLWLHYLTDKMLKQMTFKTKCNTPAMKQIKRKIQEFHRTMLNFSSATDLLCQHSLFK
Nature of the assay: ADP-Glo in vitro kinase inhibition assay, Haspin. The format is biochemical. Particulars: for remaining activity at 1 µM: 1 μM compound; for remaining activity at 1 µM / pIC50 / remaining activity at 10 µM: 10 μM ATP, duplicate; for remaining activity at 1 µM / remaining activity at 10 µM: read-out: Haspin % residual activity; for remaining activity at 10 µM: 10 μM compound; for SI: selectivity index = IC50 second most inhibited kinase/IC50 Haspin: second most inhibited kinase named in parentheses below the value (PIM1 or CLK1). The method, then:
We previouly reported that substitution at the 3-position with halogen atoms or pyridinyl or formyl groups was compatible with high potency toward Haspin kinase. To check if the current structural changes were in line with potent Haspin inhibition and high selectivity, enabling consideration of these compounds as possible targeting ligands for the PROTAC approach, compounds 2, 3, 8–11, and 15–17 were evaluated toward a panel of eight protein kinases, including Haspin, as well as other kinases known to be frequently cross-inhibited (CLK1, DYRK1A, CDK9/Cyclin T, GSK-3β, CK1ε, CDK5/p25, and Pim1) (Table 1). The percentage of residual kinase activity was evaluated at 10 μM and 1 μM compound concentrations. […].
Kinase inhibition was tested in 384-well plates using the ADP-GloTM assay kit (Promega, Madison, WI, USA) according to the procedure recommended by the manufacturer. Reactions were set up in a final volume of 6 μL in an appropriate kinase buffer (10 mM MgCl2, 1 mM EGTA, 1 mM DTT, 25 mM Tris-HCl pH 7.5, 50 μg/mL heparin) with either protein or peptide as the substrate in the presence of 10 μM ATP. To stop the kinase reaction, 6 μL of ADP-GloTM Kinase Reagent was added after 30 min at 30 °C. Then, after 50 min of incubation at room temperature (RT), 12 μL of Kinase Detection Reagent was added. The transmitted signal was measured after 1 h at RT using the Envision (Perkin Elmer, Waltham, MA, USA) microplate luminometer and expressed in relative light units (RLU). In order to determine the half-maximal inhibitory concentration (IC50), all assays were performed in duplicate in the absence or presence of increasing doses of the tested compounds. GraphPad Prism10 software (GraphPad Software, San Diego, CA, USA) was used to fit dose–response curves and to determine the IC50 values. Kinase activities are given as percentages of maximal activity, i.e., measured in the absence of inhibitor. Peptide substrates were obtained from Proteogenix (Schiltigheim, France).
The following protein kinases were analyzed in this study: CDK5/p25 (human, vector pGEX-2T, expressed in bacteria; kindly provided by Dr. J. H. Wang) was assayed with 0.8 μg/μL of histone H1 as substrate; HsCDK9/CyclinT (NP_001252/KAI4065659, cloned in pTEFb vector, expressed by baculovirus in Sf9 insect cells) were assayed with 0.27 μg/μL of the following peptide: […], as substrate; HsCK1ε (NP_001885, cloned in pFAST-BAC vector, expressed in Sf9 insect cells) was assayed with 0.022 μg/μL of the following peptide: […]pAYSITA (“Sp” stands for phosphorylated serine) as CK1-specific substrate; HsGSK3β (AAH12760, cloned in pFAST-BAC, expressed by baculovirus in Sf9 insect cells) were assayed with 0.010 μg/μL of GS-1 peptide, a GSK-3-selective substrate ([…]pEDEEE); HsHaspin-kd (NP_114171, kinase domain, amino acids 470–798 cloned in pGEX-6P-3, expressed in bacteria) was assayed with 0.007 μg/μL of histone H3 (1–21) peptide ([…]) as substrate; Pim-1 (KAI4018123, expressed in bacteria) was assayed with 0.8 μg/μL of histone H1 as substrate; HsCLK1 (NP_004062, cloned in pFAST-BAC, expressed in Sf9 insect cells) was assayed with 0.027 μg/μL of the peptide: […]; RnDYRK1A-kd (Rattus norvegicus, amino acids 1–499, pGEX-2TK, expressed in bacteria, gift from Dr. W. Becker, Aachen, Germany) was tested in the presence of 0.033 μg/μL of the peptide: […].
For orientation: ADP-Glo first removes unused ATP, then detects ADP through luciferase.

Regarding `Nc1ccc(-c2c[nH]c3cc4cnccc4cc23)cn1` [Compound 3, 5-(1H-Pyrrolo[3,2-g]isoquinolin-3-yl)pyridin-2-amine], the remaining activity at 1 µM came out at 7%, the pIC50 was 7.97, the remaining activity at 10 µM is 1% and the “SI: selectivity index = IC50 second most inhibited kinase/IC50 Haspin” value turned out to be 8.8.

As to `COC(=O)/C=C/c1c[nH]c2cc3cnccc3cc12` [Compound 8, Methyl (E)-3-(1H-Pyrrolo[3,2-g]isoquinolin-3-yl)prop-2-enoate], the remaining activity at 1 µM stood at 11%, the pIC50 is 7.81, the remaining activity at 10 µM is 6% and the “SI: selectivity index = IC50 second most inhibited kinase/IC50 Haspin” value worked out at 26.1.

Take `c1cc2cc3c(-c4cc[nH]n4)c[nH]c3cc2cn1` [Compound 15, 3-(1H-Pyrazol-3-yl)-1H-pyrrolo[3,2-g]isoquinoline]: the remaining activity at 1 µM turned out to be 0%, the pIC50 is 7.51, the remaining activity at 10 µM turned out to be 0% and the “SI: selectivity index = IC50 second most inhibited kinase/IC50 Haspin” value was above 7.

Regarding `c1cc2cc3c(-c4cn[nH]c4)c[nH]c3cc2cn1` [Compound 16, 3-(1H-Pyrazol-4-yl)-1H-pyrrolo[3,2-g]isoquinoline], the remaining activity at 1 µM was 0%, the pIC50 was 7.91, the remaining activity at 10 µM stood at 0% and the “SI: selectivity index = IC50 second most inhibited kinase/IC50 Haspin” value was found to be 8.2.

As for `c1c[nH]c(-c2c[nH]c3cc4cnccc4cc23)c1` [Compound 17, 3-(1H-Pyrrol-2-yl)-1H-pyrrolo[3,2-g]isoquinoline], the remaining activity at 1 µM was determined as 6%, the pIC50 was 7.09 and the remaining activity at 10 µM was determined as 0%.
